From patent US20030072781A1, “Calcified tissue facing preparation containing antimicrobial agent” (Advantage Dental Products, Inc., priority 1998, published 2003)

Test system: Strept. mutans
Assay: Strept. mutans culture rinse, colony count
Assay type: cell-based
Conditions: 30 second submersion, counted after 48 hours
Procedure: Standardized cultures of Strept. mutans are grown in petri dishes and subjected to 30 second submersion in 20 milliliters of various concentration rinses of aqueous chlorohexidine. A 0.04% chlorohexidine solution and water serve as controls. Thereafter, the petri dishes are incubated and colony members counted after 48 hours.

## [H]/N=C(\N/C(=N/[H])NCCCCCCNC(=N)NC(=N)Nc1ccc(Cl)cc1)Nc1ccc(Cl)cc1 [Chlorohexidine, chlorohexidine]
0.04 wt. % aqueous rinse (control)
  Colony Member After Rinse: 26
0.2 wt. % aqueous rinse
  Colony Member After Rinse: 0
0.5 wt. % aqueous rinse
  Colony Member After Rinse: 1
1.0 wt. % aqueous rinse
  Colony Member After Rinse: 1
2.0 wt. % aqueous rinse
  Colony Member After Rinse: 0
5.0 wt. % aqueous rinse
  Colony Member After Rinse: 2
10.0 wt. % aqueous rinse
  Colony Member After Rinse: 0
